Where two headings read alike, the source gives them in different places.
How the values were obtained:
[1] = system: MDA-MB-231 breast cancer cell lines; experiment: Evaluation of inhibition on cell growth (MTS); format: cell-based
Procedure, shortened: (§1)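 GI50 values come from growth equations comparing treated, untreated and medium-only wells. Fibroblasts (Hs27, Balb/c3t3) got 72 h compound exposure with SRB read-out at 540 nm after TCA fixing. MDA-MB-231 got 120 h with MTS at 490 nm, across 10 μM˜0.1 nM.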

[2] = Toxicity to normal cells (SRB); format: cell-based, human; settings: human, Hs27 fibroblasts (normal cell line)
Procedure, shortened: as §1

[3] = system: caspase 3/7; experiment: Evaluation of caspase activity (Caspase-Glo 3/7 Assay Kit); format: cell-based; settings: MDA-MB-231 cells, 12 hours, compared to untreated MDA-MB-231 cells; 0.5, 1, 5 μM tested
Description: (§2) MDA-MB-231 breast cancer cells (ATCC #HTB-26) were plated in 96-well plates at a density of 1.0 1.5×10^4 cells/well. […] Then, media were removed and the cells were washed two times with PBS at 4° C. The cells were treated with a solution of the analysis samples and media (1:1) in an amount of 140 μL/well using Caspase-GloTM 9 Assay Kit (Cat#. […]; Promega, USA) and Caspase-GloTM 3/7 Assay Kit (Cat#. […]; Promega, USA). After the cells were incubated at 37° C. for 2 hours, luminescence was measured using InfiniteTM M1000 multi reader (Tecan). […] The values were represented as “***” for six fold or more, “**” for 4 fold to below 6 fold, and “*” for 1 fold to below 4 fold, as compared to that of untreated, normal MDA-MB-231 breast cancer cell lines.

[4] = system: caspase 9; experiment: Evaluation of caspase activity (Caspase-Glo 9 Assay Kit); format: cell-based; settings: MDA-MB-231 cells, 16 hours, compared to untreated MDA-MB-231 cells; 0.5, 1, 5 μM tested
Description: as §2

[5] = Toxicity to normal cells (SRB); format: cell-based, mouse; settings: mouse, Balb/c3t3 fibroblasts (normal cell line), read-out: BalB/C (GI50)
Procedure, shortened: as §1

[6] = system: Hs27 fibroblasts; experiment: Toxicity to normal cells (SRB); format: cell-based, human; settings: normal cell line, 72 hours
Procedure, shortened: as §1

[7] = system: Balb/c3t3 fibroblasts; experiment: Toxicity to normal cells (SRB); format: cell-based, mouse; settings: normal cell line, 72 hours, read-out: BalB/C (GI50)
Procedure, shortened: as §1

[8] = Homo sapiens, MDA-MB-231, 120 hours

Molecule	GI50 [1, 8]	GI50 at 72 h [2]	Caspase-3 [3]	Caspase-9 [4]	GI50 at 72 h [5]	GI50 ([1]; 120 hours)	GI50 [6]	GI50 [7]
CN[C@@H](C)C(=O)N[C@H](C(=O)N1CCC[C@H]1C(=O)Nc1cc2c(Nc3ccc(F)c(Cl)c3F)ncnc2cc1OC)C1CCCCC1.Cl [Example 15, (S)—N-(4-(3-chloro-2,4-difluorophenylamino)-7-methoxyquinazolin-6-yl)-1-((S)-2-cyclohexyl-2-((S)-2-(methylamino)propanamido)acetyl)pyrrolidine-2-carboxamide hydrochloride]	≤ 0.1 µM	> 10 µM	*** (six fold or more)	*** (six fold or more)	> 10 µM			
CN[C@@H](C)C(=O)N[C@H](C(=O)N1CCC[C@H]1C(=O)Nc1cc2c(Nc3ccc(F)c(F)c3F)ncnc2cc1OC)C(C)(C)C.Cl [Example 17, (S)-1-((S)-3,3-dimethyl-2-((S)-2-(methylamino)propanamido)butanoyl)-N-(7-methoxy-4-(2,3,4-trifluorophenylamino)quinazolin-6-yl)pyrrolidine-2-carboxamide hydrochloride]	≤ 0.1 µM	> 10 µM	*** (six fold or more)	*** (six fold or more)	> 10 µM			
CN[C@@H](C)C(=O)N[C@H](C(=O)N1CCC[C@H]1C(=O)Nc1cc2c(NCc3ccccc3)ncnc2cc1OC)C(C)(C)C.Cl [Example 18, (S)—N-(4-benzylamino-7-methoxyquinazolin-6-yl)-1-((S)-3,3-dimethyl-2-((S)-2-(methylamino)propanamido)butanoyl)pyrrolidine-2-carboxamide hydrochloride]	≤ 0.1 µM	> 10 µM	*** (six fold or more)	*** (six fold or more)	> 10 µM			
CN[C@@H](C)C(=O)N[C@H](C(=O)N1CCC[C@H]1C(=O)Nc1cc2c(Nc3ccc(Oc4ccc(C)nc4)c(Cl)c3)ncnc2cc1OC)C(C)(C)C.Cl [Example 19, (S)—N-(4-(3-chloro-4-(6-methylpyridin-3-yloxy)phenylamino)-7-methoxyquinazolin-6-yl)-1-((S)-3,3-dimethyl-2-((S)-2-(methylamino)propanamido)butanoyl)pyrrolidine-2-carboxamide hydrochloride]	≤ 0.1 µM	> 10 µM	*** (six fold or more)	*** (six fold or more)	> 10 µM			
(S)—N—((S)-1-((S)-2-(4-((4-bromo-2-fluorophenylamino)-6-methoxyquinazolinyl-7-oxy)methyl)piperidine)-1-carbonyl)-1-pyrrolidinyl)-3,3-dimethyloxobutan-2-yl)-2-(methylamino)propanamide hydrochloride [Example 44]						≤ 0.1 µM	> 10 µM	> 10 µM

From patent US8835458B2 (Hanmi Science Co., Ltd, priority 2010, dated 2014)
